Measured values taken from US9107411B2, “Indolecarboxamides and benzimidazolecarboxamides as insecticides and acaricides” (BAYER INTELLECTUAL PROPERTY GMBH, priority 2011, dated 2015).

What was measured:
Type in all cases: in vivo
[1] = tested on: Aulacophora femoralis; experiment: Aulacophora femoralis spray test (AUACFE); conditions: application rate 20 ppm; cucumber plants, L2 larvae; after 6 days
Description: Aulacophora femoralis Spray Test (AUACFE) Solvent: 3 parts by weight of dimethylformamide Emulsifier: 1 part by weight of polyoxyethylene alkylphenyl ether To produce an appropriate active ingredient formulation, 1 part by weight of active ingredient is mixed with the stated amounts of solvent and emulsifier, and the concentrate is diluted with emulsifier-containing water to the desired concentration. If required, ammonium salts or ammonium salts and penetrants are additionally added in a concentration of 1000 ppm. Young cucumber plants (Cucumis sativus) at the cotyledonous leaf stage are sprayed with an active ingredient formulation of the desired concentration. After drying, the treated plant material is introduced into test vessels and each is infected with 5 L2 larvae of the cucurbit leaf beetle (Aulacophora femoralis). After 6 days, the efficacy in % is determined. 100% means that all of the beetle larvae have been killed; 0% means that none of the beetle larvae have been killed.

[2] = tested on: Myzus persicae; experiment: Myzus persicae spray test (MYZUPE - OP/Carb-resistant); conditions: application rate 100 ppm; aubergine plants; after 6 days
Description: Myzus persicae Spray Test (MYZUPE—OP/Carb-Resistant)
(§1) Solvent: 3 parts by weight of dimethylformamide
(§2) Emulsifier: 1 part by weight of polyoxyethylene alkylphenyl ether
(§3) To produce an appropriate active ingredient formulation, 1 part by weight of active ingredient is mixed with the stated amounts of solvent and emulsifier, and the concentrate is diluted with emulsifier-containing water to the desired concentration. If required, ammonium salts or ammonium salts and penetrants are additionally added in a concentration of 1000 ppm.
Aubergine plants (Solanum melongena) at the 2-leaf stage, which have been infested with a mixed population of the green peach aphid (Myzus persicae), are sprayed with an active ingredient formulation of the desired concentration.
After 6 days, the efficacy in % is determined. 100% means that all of the aphids have been killed; 0% means that none of the aphids have been killed.

[3] = tested on: Thrips palmi; experiment: Thrips palmi spray test (THRIPL); conditions: application rate 20 ppm; cucumber plants; after 6 days
Description: Thrips palmi Spray Test (THRIPL)
as §1, §2, §3
Young cucumber plants (Cucumis sativus) are sprayed with an active ingredient formulation of the desired concentration. After drying, filter paper discs with about 100 thrips eggs (Thrips palmi) are placed onto the treated plants and, to give 100% air humidity, covered with housings.
After 6 days, the efficacy in % feeding damage is determined 100% means that there is no feeding damage; 0% means that there is no difference from the untreated control.

[4] = tested on: Phaedon cochleariae; experiment: Phaedon test (PHAECO spray treatment); conditions: application rate 100 g/ha, Chinese cabbage leaf discs, after 7 days
Summary of the method: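 Larval mortality was assessed 7 days after Phaedon cochleariae larvae were placed on dried, spray-treated Brassica pekinensis leaf discs. The formulation was an acetone/dimethylformamide concentrate with alkylaryl polyglycol ether emulsifier, diluted in emulsifier-containing water. Results are given as % kill, from 0 (no larvae dead) to 100 (all dead).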

[5] = tested on: adult engorged Boophilus microplus females of the SP-resistant Parkhurst strain; experiment: Boophilus microplus test (DIP); conditions: application rate 100 ppm, after 7 days
Description: Boophilus microplus Test (DIP)
Test animals: adult engorged Boophilus microplus females of the SP-resistant Parkhurst strain
Solvent: dimethyl sulphoxide
10 mg of active ingredient are dissolved in 0.5 ml of dimethyl sulphoxide. For the purpose of preparing a suitable formulation, the active ingredient solution is diluted with water to the concentration desired in each case.
This active ingredient formulation is pipetted into tubes. 8-10 ticks are transferred into a further tube with holes. The tube is immersed into the active ingredient formulation, and all ticks are completely wetted. After the liquid has run out, the ticks are transferred onto filter discs in plastic dishes and stored in a climate-controlled room.
The activity is assessed after 7 days by laying of fertile eggs. Eggs whose fertility is not outwardly visible are stored in glass tubes in a climate-controlled cabinet until the larvae hatch. An efficacy of 100% means that none of the ticks has laid any fertile eggs.

[6] = tested on: Myzus persicae; experiment: Myzus test (MYZUPE spray treatment); conditions: application rate 100 g/ha; Chinese cabbage leaf discs; after 6 days
Summary of the method: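 Chinese cabbage leaf discs carrying all aphid stages sprayed with active ingredient in acetone/DMF with alkylaryl polyglycol ether emulsifier, diluted in emulsifier-containing water to the desired concentration. Efficacy (% aphids killed) scored after 6 days; 100% = all killed, 0% = none killed.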

For `C#CCn1c(C(=O)NC(c2ccc(F)c(C(F)(F)F)c2)C(F)(F)F)cc2cc(C(=O)NC3CC3)c(Cl)cc21` (stereo not shown) [Compound 6], the efficacy in % [1] was 100%, the efficacy in % [2] was 90% and the “efficacy in % feeding damage” value [3] was 90%. The efficacy in % [4] was 100%.
`CCn1c(C(=O)NC(c2cccc(C(F)(F)F)c2)C(F)(F)F)cc2cc(C(=O)NC3(C#N)CC3)c(Cl)cc21` (stereo not shown) [Compound 7, 6-chloro-N^5-(1-cyanocyclopropyl)-1-ethyl-N^2-{2,2,2-trifluoro-1-[3-(trifluoromethyl)phenyl]ethyl}-1H-indole-2,5-dicarboxamide] was tested, and the “efficacy (laying of fertile eggs)” value [5] was 100%, the efficacy in % [1] was 100% and the efficacy in % [2] was 98%. For the same molecule, the “efficacy in % feeding damage” value [3] was 98%, the efficacy in % [6] was 90% and the pest or weed control at 100 g/ha ([4]; Phaedon cochleariae, foliar, 168 h, read-out: efficacy in %) was 100%.
